Test results reported in patent US11433086B2, “Combination of T-cell checkpoint inhibitors with inhibitors of e-selectin or CXCR4, or with heterobifunctional inhibitors of both E-selectin and CXCR4” (GlycoMimetics, Inc., priority 2016, dated 2022).

System: subcutaneous CT26.WT carcinoma xenografts
Assay: Anti-cancer activity against subcutaneous CT26.WT carcinoma in Balb/c mice (tumor growth delay, response status)
Assay type: in vivo
Set-up: key to Tumor Growth Delay, statistical comparison vs G1 (Vehicle (Saline)) / Tumor Growth Delay, statistical comparison vs G2 (GMI-1359) / Tumor Growth Delay, statistical comparison vs G3 (anti KLH; Rat IgG2b, LTF-2) / Tumor Growth Delay, statistical comparison vs G4 (anti-mPD-L1) / Tumor Growth Delay, statistical comparison vs G5 (GMI-1359 + anti KLH; Rat IgG2b, LTF-2) / Tumor Growth Delay, statistical comparison vs G6 (GMI-1359 + anti-mPD-L1) / Tumor Growth Delay, statistical comparison vs G7 (Vehicle (Saline)): + = P < 0.05; NS = Nonsignificant
Procedure: The anti-cancer activity of an anti-mPD-L1 antibody (10F.9G2) and GMI-1359 was compared to a rat isotype control antibody against indeterminate subcutaneous CT26.WT carcinoma xenografts in female Balb/c mice. An immune profile of each mouse was determined by sampling tumors and spleens, staining for several markers of an active immune response, and detecting the levels of these markers via flow cytometry. Flow cytometry markers included: T-Cells (CD4^+ and CD8^+), Regulatory T-Cells (Tregs). (CD4^+/CD25^+/FoxP3^+), MDSCs (CD11b^+/Gr1^+) and co-expression of CCR7^+ and CD62^+ added to the existing CD4/CD8 panel.
CT26.WT cells were grown in RPMI 1640 medium which was modified with 1 mM Na pyruvate, 10 mM HEPES, 2.5 g/L glucose and supplemented with 10% nonheat-inactivated Fetal Bovine Serum (FBS) and 1% 100X Penicillin/Streptomycin/L-Glutamine (PSG). The growth environment was maintained in an incubator with a 5% CO2 atmosphere at 37° C.
When expansion was complete, the cells were trypsinized using 0.25% trypsin-EDTA solution. Following cell detachment, the trypsin was inactivated by dilution with complete growth medium and any clumps of cells were separated by pipetting. The cells were centrifuged at 200 rcf for 8 minutes at 4° C., the supernatant was aspirated, and the pellet was re-suspended in cold Dulbecco's Phosphate Buffered Saline (DPBS) by pipetting. An aliquot of the homogeneous cell suspension was diluted in a trypan blue solution and counted using a Luna automated cell counter. The preimplantation cell viability was 92%. The cell suspension was centrifuged at 200 rcf for 8 minutes at 4° C. The supernatant was aspirated and the cell pellet was re-suspended in cold serum-free medium to generate a final concentration of 2.50E+06 trypan-excluding cells/mi. The cell suspension was maintained on wet ice during implantation. Following implantation, an aliquot of the remaining cells was diluted with a trypan blue solution and counted to determine the post-implantation cell viability (91%).
Test animals were implanted subcutaneously, high in the axilla (just under the fore limb) on Day 0 with 5.00E+05 cells in 0.2 ml of serum-free medium using a 27-gauge needle and syringe.
All mice were sorted into study groups based on body weights such that the mean body weights in each group was within 10% of the overall mean. Treatment began on Day 3.
GMI-1359 was dosed intraperitoneally at 40 mg/kg, every day for 20 days (Days 3-22) and every day for 12 days (Days 3-14) for Groups 2 and 8, respectively.
Anti-KLH; Rat IgG2b, LTF-2 was dosed intraperitoneally at 10 mg/kg, every 3 days for 2 treatments, with 3 days off for 2.5 weeks (Days 3, 6, 10, 13 and 17) for Group 3. Group 9 was dosed intraperitoneally at 10 mg/kg, every 3 days for 2 treatments, with 3 days off for 2 weeks (Days 3, 6, 10 and 13).
Groups 4 and 10: Anti-mPD-L1, 10F.9G2 was dosed intraperitoneally at 10 mg/kg, every 3 days for 2 treatments, with 3 days off for 2.5 weeks (Days 3, 6, 10, 13 and 17) for Group 4.
Group 10 was dosed intraperitoneally at 10 mg/kg, every 3 days for 2 treatments, with 3 days off for 2 weeks (Days 3, 6, 10 and 13).
GMI-1359 was dosed in combination with anti-KLH; Rat IgG2b, LTF intraperitoneally at 40 mg/kg and 10 mg/kg, respectively. In Group 5, GMI-1359 was dosed once a day for 20 days (Days 3-22) and anti-KLH; Rat IgG2b was given every 3 days for 2 treatments, with 3 days off for 2.5 weeks (Days 3, 6, 10, 13 and 17). In Group 11, GMI-1359 was dosed once a day for 12 days (Days 3-14) and anti-KLH; Rat IgG2b was dosed every 3 days for 2 treatments, with 3 days off for 2 weeks and (Days 3, 6, 10 and 13). On days when both compounds were dosed, GMI-1359 was given first and then anti-KLH; Rat IgG2b, LTF was given within minutes thereafter.
Groups 6 and 12: GMI-1359 and anti-mPD-L1, 10F.9G2 were dosed in a combination regimen intraperitoneally at 40 mg/kg and 10 mg/kg, respectively. […]

[1] = listed as groups G8-G12 (sampling groups)
[2] = printed directly after the Group 8 / Group 12 values, group not named

CCC1CC(C(=O)NCCNCc2ccc(CN3CCCNCCNCCCNCC3)c(Br)c2)CC(OC2OC(CO)C(O)C(O[C@@H](CC3CCCCC3)C(=O)O)C2NC(C)=O)C1OC1OC(C)C(O)C(O)C1O (stereo partly drawn) [GMI-1359]
disease status of the group (Group 2, single agent): all animals were identified with progressive disease | statistical significance of anti-tumor effect (Groups 2, 4, 6): did not produce a statistically significant (p>0.05) anti-tumor effect | regressions or tumor free survivors (Groups 2-6): no regressions or tumor free survivors | median time to evaluation size (750 mm^3) from the start of dosing (Groups 2-6: GMI-1359 40 mg/kg IP QDx20 (Days 3-22), antibody 10 mg/kg IP Days 3,6,10,13,17): 18.4 days | median post Day 9 tumor volume doubling time (Groups 2-6: GMI-1359 40 mg/kg IP QDx20, antibody 10 mg/kg IP Days 3,6,10,13,17): 3.3 days | incidence of progressive disease (Groups 2-6, tumor burden >=2 fold that on Day 9): 100% | tumor growth delay (T-C) (Groups 2-6 vs Group 1 saline, evaluation size 750 mm^3, GMI-1359 40 mg/kg IP QDx20, antibody 10 mg/kg IP Days 3,6,10,13,17): 2.5 days | regressions or tumor free survivors (Groups 8-12 (sampling groups)): no regressions or tumor free survivors | incidence of progressive disease (Groups 8-12 (sampling groups, euthanized Day 15)): 100% | median time to evaluation size (Groups 8-12: GMI-1359 40 mg/kg IP QDx12 (Days 3-14), antibody 10 mg/kg IP Days 3,6,10,13, euthanized Day 15): 14.3 days | median post Day 9 tumor volume doubling time (Groups 8-12: GMI-1359 40 mg/kg IP QDx12, antibody 10 mg/kg IP Days 3,6,10,13, euthanized Day 15): 1.8 days | Tumor Growth Delay, statistical comparison vs G1 (Vehicle (Saline)) (listed as groups G2-G6, time to evaluation size 750 mm^3): NS | Tumor Growth Delay, statistical comparison vs G1 (Vehicle (Saline)) [1]: NS | Tumor Growth Delay, statistical comparison vs G2 (GMI-1359) [1]: NS | Tumor Growth Delay, statistical comparison vs G3 (anti KLH; Rat IgG2b, LTF-2) [1]: NS | Tumor Growth Delay, statistical comparison vs G4 (anti-mPD-L1) [1]: NS | Tumor Growth Delay, statistical comparison vs G5 (GMI-1359 + anti KLH; Rat IgG2b, LTF-2) [1]: NS | Tumor Growth Delay, statistical comparison vs G6 (GMI-1359 + anti-mPD-L1) [1]: NS | Tumor Growth Delay, statistical comparison vs G7 (Vehicle (Saline)) [1]: NS | median time to progression [2]: 14.5 days | progression free survival period [2]: 5.5 days
